{"source": "patent US20110166223A1", "about": "“METHODS OF INHIBITING FGFR3 SIGNALING” (CEDARS-SINAI MEDICAL CENTER, priority 2008, published 2011)", "molecular_target": "T1, recombinant tyrosine kinase (TK) domain of FGFR3 (Homo sapiens, UniProt P22607)", "T1 construct": "recombinant tyrosine kinase (TK) domain of FGFR3 (Glu-322-Thr-806; Cell Signaling); purchased Cell Signaling", "T1 sequence (P22607 322-806)": "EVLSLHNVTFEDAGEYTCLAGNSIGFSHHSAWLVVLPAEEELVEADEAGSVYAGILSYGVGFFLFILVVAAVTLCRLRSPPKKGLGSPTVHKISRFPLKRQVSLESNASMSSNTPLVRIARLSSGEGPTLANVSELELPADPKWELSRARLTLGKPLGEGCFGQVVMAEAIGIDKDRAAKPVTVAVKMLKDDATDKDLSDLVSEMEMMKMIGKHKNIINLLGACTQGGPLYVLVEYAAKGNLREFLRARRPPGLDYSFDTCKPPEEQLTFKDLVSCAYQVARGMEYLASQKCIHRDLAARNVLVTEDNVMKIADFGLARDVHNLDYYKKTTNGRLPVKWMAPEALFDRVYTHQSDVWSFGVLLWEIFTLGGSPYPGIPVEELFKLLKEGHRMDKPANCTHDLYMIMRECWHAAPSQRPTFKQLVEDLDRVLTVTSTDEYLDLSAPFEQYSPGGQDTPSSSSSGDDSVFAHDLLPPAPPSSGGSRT", "assay": "Cell-free FGFR3 kinase assay with STAT1 as substrate", "assay_type": "biochemical", "conditions": "for effect on FGFR3 kinase activity (in words): added directly to the kinase reaction, FIG. 4", "experimental": "FIG. 4, in accordance with an embodiment herein, depicts 4,4′,4″,4′″-[carbonyl-bis[imino-5,1,3-benzenetriyl bis-{carbonylimino}]]tetrakis-{benzene-1,3-disulfonic acid} inhibits FGFR3 activity in a kinase assay. (a, b) Cell-free kinase assays were carried out as described herein, with recombinant tyrosine kinase (TK) domain of FGFR3 as a kinase, recombinant STAT1 as a substrate, and NF449 added directly to the kinase reaction. FGFR3-mediated phosphorylation of STAT1 was detected by WB with P-STAT1 (Y^701) antibody. The membrane was reprobed with FGFR3 and STAT1 antibodies to control for kinase and substrate quantity. The sample with ATP omitted serves as a negative control for the kinase reaction. Note the FGFR3-mediated phosphorylation of STAT1 is inhibited by 4,4′,4″,4′″-[carbonyl-bis[imino-5,1,3-benzenetriyl bis-{carbonylimino}]]tetrakis-{benzene-1,3-disulfonic acid}. The P-STAT1 and STAT1 signal was quantified by densitometry and expressed as a ratio between P-STAT1 and STAT1 signal for each given sample (b, lower graph). (c) The FGFR3 kinase assay was carried-out as described in (a) with 4,4′,4″,4′″-[carbonyl-bis[imino-5,1,3-benzenetriyl bis-{carbonylimino}]]tetrakis-{benzene-1,3-disulfonic acid}, 8,8′-[carbonylbis[imino-3,1-phenylenecarbonylimino{4-methyl-3,1-phenylene}carbonylimino]]bis-1,3,5-naphthalenetrisulfonic acid or 8,8′-[carbonylbis[imino-3,1-phenylene]]bis-{1,3,5-naphthalenetrisulfonic acid} added to the kinase reaction. Note the differential effects of 8,8′-[carbonylbis[imino-3,1-phenylenecarbonylimino{4-methyl-3,1-phenylene}carbonylimino]]bis-1,3,5-naphthalenetrisulfonic acid and 8,8′-[carbonylbis[imino-3,1-phenylene]]Bis-{1,3,5-naphthalenetrisulfonic acid} on the FGFR3-mediated phosphorylation of STAT1, which corresponds to their activity in the RCS growth-arrest experiment (lower graph). Data are an average from four wells with the indicated standard deviation. Statistically significant rescue of the growth arrest is indicated (Student's I-test; *-p<0.01).\nOPM2 and KMS11 cells were lysed in ice-cold immunoprecipitation buffer (50 mM Tris-HCl pH 7.4, 150 mM NaCl, 0.5% NP-40, 1 mM EDTA, 25 mM NaF) supplemented with proteinase inhibitors and 10 mM sodium orthovanadate. Protein samples were resolved by SDS-PAGE and transferred onto a PVDF membrane. The following antibodies were used: Erk1/2, P-Erk1/2^T202/Y204, STAT1, P-STAT1^Y701 (Cell Signaling, Beverly, Mass.) and FGFR3 (Santa Cruz Biotechnology, Santa Cruz, Calif.). Western blotting signal was quantified by determining the integrated optical density (I.O.D.) of a given band using Scion Image software (Scion Corporation, Frederick, Mass.). Immunoprecipitations and FGFR3 kinase assays were performed as described. Briefly, the pRK7 vector encoding C-terminally FLAG-tagged K650E-FGFR3 was transfected into CHO cells using FuGENE6 reagent according to the manufacturer's protocol (Roche Applied Science, Indianapolis, Ind.). 48 hours after transfection, cells were treated with 20 ng/ml of FGF2 for 15 minutes and K650E-FGFR3 was immunoprecipitated from 800 μg of cell lysate protein using 4 μg of anti-FLAG antibody (Sigma-Aldrich, St. Louis, Mo.). Cells transfected with a plasmid encoding green fluorescent protein (pCCEY) serve as a negative control for the immunoprecipitation. Immunocomplexes were washed two times with kinase buffer (60 mM HEPES-NaOH pH 7.5, 3 mM MgCl2, 3 mM MnCl2, 3 μM Na3VO4, 1.2 mM dithiothreitol), and the kinase reactions were performed for 30 minutes at 30° C. in the presence of 2.5 μg of polyethylene glycol, 10 μM ATP, 300 ng of recombinant STAT1 (Active Motif, Carlsbad, Calif.) as a substrate, and NF449 added directly to the kinase reaction. Kinase assays utilizing recombinant tyrosine kinase (TK) domain of FGFR3 (Glu-322-Thr-806; Cell Signaling) were carried-out similarly, with 300 ng of kinase used in 50 μl reaction, and suramin, NF449 and NF023 added directly to the kinase reaction. […]", "data": [{"smiles": "O=C(Nc1cc(C(=O)Nc2ccc(S(=O)(=O)O)cc2S(=O)(=O)O)cc(C(=O)Nc2ccc(S(=O)(=O)O)cc2S(=O)(=O)O)c1)Nc1cc(C(=O)Nc2ccc(S(=O)(=O)O)cc2S(=O)(=O)O)cc(C(=O)Nc2ccc(S(=O)(=O)O)cc2S(=O)(=O)O)c1", "note": "[NF449, 4,4′,4″,4′″-[carbonyl-bis[imino-5,1,3-benzenetriylbis-{carbonylimino}]]tetrakis-{benzene-1,3-disulfonic acid}]", "values": [{"measurement": "inhibition of FGFR3 kinase activity", "setting": "0.1-30 μM range, FIG. 4b", "result": "some inhibition of FGFR3 kinase activity at all concentrations"}, {"measurement": "FGFR3-mediated tyrosine phosphorylation of STAT1", "setting": "5-30 μM NF449 concentration range, FIG. 4a", "result": "inhibited at all concentrations"}, {"measurement": "concentration necessary to achieve more than 50% inhibition of FGFR3 kinase activity", "setting": "FIG. 4b, densitometry P-STAT1/STAT1", "result": "≥ 2", "unit": "µM"}, {"measurement": "effect on FGFR3 kinase activity (in words)", "result": "inhibited the FGFR3-mediated tyrosine phosphorylation of STAT1"}, {"measurement": "effect on FGFR3 kinase activity (in words)", "setting": "listed as 4,4′,4″,4′″-[carbonyl-bis[imino-5,1,3-benzenetriyl bis-{carbonylimino}]]tetrakis", "result": "inhibited"}, {"measurement": "concentration range inhibiting FGFR3 kinase activity", "setting": "comparison with SU5402", "result": "2 to 20", "unit": "µM"}]}]}
